Test results reported in patent US20040009904A1, “APL immunoreactive peptides, conjugates thereof and methods of treatment for aPL antibody-mediated pathologies” (priority 1995, published 2004).
“And” between values parts separate entries of the source, which are not always exact repeats. Identical values can stand only once. Bridge positions count the residues as written; N and C are the ends. Peptide text beside a SMILES is read from it.

Experiments:
[1] = molecular target: ACA-6701; assay: Competitive binding peptide ACA ELISA, cardiolipin/β2-GPI-coated plates; design: species or system human
Experimental: (§1) A variation of this assay uses microtitration plates coated with human β2-glycoprotein I/cardiolipin (β2-GPI/CL) instead of tetravalent peptide and tests the ability of monomeric peptides to block the binding of aPL antibody to the epitope(s) on β2-GPI/CL. In this assay, IgG-depleted human serum at an optimized concentration is used as a source of β2-GPI. The monomeric peptides at several concentrations are incubated with an optimized concentration of aPL antibody in a manner analogous to the assay which employs tetravalent peptide as a plate substrate. Following the incubation of aPL/peptide in (β2-GPI/CL) plates, antibody binding and the peptide concentration required for 50% inhibition is determined at half-maximal absorbance as in the tetravalent assay.
(§2) Peptide sequences for all five peptides immediately follow the table. All were tested using the competitive binding peptide ACA ELISA using CL/β2-GPI plates as described herein.
(§3) (B) Immulon I® 96-well, flat-bottom, polystyrene microtitration plates (Dynatech Laboratories, Inc., Chantilly, Va.) were coated with 30 μL/well of cardiolipin (CL, 50 μg; Sigma Chemical Co., St. Louis, Mo.) in ethanol. Two control wells received 30 μL ethanol only. After overnight evaporation at 4° C., each well was blocked with 200 μL of 5% (w/v) fish gelatin in PBS for 2 hours at RT.
(§4) The CL/β2-GPI microtitration plate was washed 5 times with TBS and 100 μL aliquots in duplicate from Eppendorf tubes #1, 2, 3, and 4 containing the antibody-peptide (or no peptide mixtures) were added to the wells. A volume of 100 μL from tube #4 was added to the duplicate control wells containing no cardiolipin. The microtitration plate was incubated for 1 hour at RT with agitation at 40 rpm in an orbital shaker (American Scientific, Rotator V), washed 5 times with TBS and then 100 μL of 1:1000 goat anti-human IgG alkaline phosphatase conjugate (Zymed, Cat No. 62-8422) in 0.5% (w/v) BSA-TBS was added. Following incubation for 1 hour at RT, the microtitration plate was again washed 5 times with TBS and the colorimetric enzyme detection developed by adding 100 μL of PMPP solution (7.8 g phenolphthalein monophosphate plus 69.5 g of 2-amino-2-methyl-1-propanol in 100 mL water stock solution diluted 1:26 with water). After 21 minutes, the reaction was stopped by adding 50 μL of 0.2 M Na2HPO4 (Mallinckrodt) to each well. Absorbance at 550 nm was read in a microplate reader (Bio-Tek Instruments, Model EL 311). The amount of peptide that inhibited ACA-6501 binding by 50%, the IC50, was calculated from the graph at the intersection of half-maximal absorbance with amount of peptide added.

[2] = molecular target: ACA-7005; assay: as above; design: species or system human
Experimental: as §1, §2, §3, §4

[3] = molecular target: ACA-6641; assay: as above; design: species or system human
Experimental: as §1, §2, §3, §4

[4] = molecular target: ACA-6638; assay: as above; design: species or system human
Experimental: as §1, §2, §3, §4

[5] = molecular target: ACA-6644; assay: as above; design: species or system human
Experimental: as §1, §2, §3, §4

[6] = molecular target: ACA-7004; assay: as above; design: species or system human
Experimental: as §1, §2, §3, §4

[7] = molecular target: ACA-6626; assay: as above; design: species or system human
Experimental: as §1, §2, §3, §4

[8] = molecular target: ACA-6903; assay: as above; design: species or system human
Experimental: as §1, §2, §3, §4

[9] = system: ACA antibodies; assay: Competitive binding peptide ACA ELISA, cardiolipin/β2-GPI-coated plates, panel of ACA antibodies (average); design: species or system human
Experimental: as §1, §2
As noted in Section I above, one synthetic peptide, 6641/3G3 was tested against several high titer ACA antisera. This peptide appeared to be crossreactive with the vast majority of ACA antisera tested as illustrated in FIG. 14.
as §3, §4

[10] = system: ACA; assay: Structure Activity Relationship of the Crossreactive ACA Epitope (relative activity); type: binding, human; conditions: LJP 688 = 100
Description: Peptide 6641/3G3 (LJP 688) was subjected to a number of analyses. The analyses included truncation at both the N-terminus and the C-terminus, disulfide substitution, substitution of alanine and glycine for amino acids in positions 2 through 8, substitution of branched aliphatic amino acids in positions 2, 4, 5 and 8, substitution of amino acids affecting conformation of the peptide, including substitution of α-methyl amino acids, substitution of basic amino acids in position 7, substitution of D-amino acids in positions 2 through 9, and the substitution of N-α-methyl amino acids in positions 1 through 9.

[11] = molecular target: ACA-6635; assay: Competitive binding peptide ACA ELISA, cardiolipin/β2-GPI-coated plates; design: species or system human; conditions: ACA serum 6635 RS
[12] = molecular target: ACA-6501; assay: as above; design: species or system human
Summary of the method: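 Monomeric peptides at several amounts were preincubated ~1 h at RT with ACA-6501 serum (final 1:400), then added to cardiolipin-coated, fish-gelatin-blocked plates with β2-GPI for 1 h at RT. Bound IgG was detected with alkaline phosphatase anti-human IgG and phenolphthalein monophosphate, read at 550 nm. IC50 was the peptide amount at half-maximal absorbance.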

[13] = system: ACA-6641; assay: Phage-capture ELISA; type: binding, human; conditions: ACA-6641 screen
Experimental: The phage-capture ELISA consists of the following steps. Microtitration wells are coated with aPL antibody and phage clones are added as in the micropanning assay. Unbound phage are washed away and the amount of bound phage is quantitated using an enzyme-conjugated goat antiserum which binds the major coat protein of the phage. Phage screened using phage-capture ELISA react with many aPL antibodies and provide a strong signal in subsequent ELISA assays. This intermediate level of sensitivity allows for greater efficiency in the peptide synthesis effort since few micropanning-positive phage are phage-capture ELISA positive. As a result, peptides synthesized from positive phage-capture ELISA phage are generally immunoreactive.
AffACA-6641 was isolated from 4 mL of plasma taken from patient number 6641. AffACA-6641 (10 μg) was incubated with the pooled p-III phage libraries in a final volume of 100 μL as described previously. Following four rounds of biopanning, 45 clones from the 3rd and 4th rounds were tested by micropanning. Of the 45, 23 scored negative. The 3rd round phage yielded two clones that scored 4+, two that scored 3+ and two that scored 2+. From the 4th round, one clone scored 4+, one scored 3+ and three scored 2+. […] Four base DNA sequencing gave the following translated peptide sequence: […]

[14] = peptide 1 mg/mL, affinity purified antibody

With `CC(C)C[C@@H]1NC(=O)[C@@H](NC(=O)[C@@H]2CCCN2C(=O)CNC(=O)[C@H](C)N)CSSC[C@@H](C(=O)N2CCC[C@H]2C(=O)NCC(=O)O)NC(=O)[C@H](CC(C)C)NC(=O)[C@H](CCCCN)NC(=O)CNC(=O)[C@H](CC(C)C)NC(=O)[C@H](C(C)C)NC(=O)CNC1=O` [LJP 688, AGP-CLGVLGKLC-PG] (H-AGPCLGVLGKLCPG-OH; disulfide 4-12) the “IC50 for peptide LJP 688” value ([1]; ACA serum 6701 RS) was 1070 µg/mL, the “Percent Inhibition of AffACA by Peptide Monomers, 6701” value [1, 14] was 100% and the “IC50 for peptide LJP 688” value ([2]; ACA serum 7005 RFL) was 750 µg/mL. The “Percent Inhibition of AffACA by Peptide Monomers, 7005” value [2, 14] was 95%, the “IC50 for peptide LJP 688” value ([3]; ACA serum 6641 RS) was 890 µg/mL and 510 µg/mL and the “Percent Inhibition of AffACA by Peptide Monomers, 6641” value [3, 14] was 93%. The “IC50 for peptide LJP 688” value ([4]; ACA serum 6638 RS) was 810 µg/mL, the “Percent Inhibition of AffACA by Peptide Monomers, 6638” value [4, 14] was 100% and the “IC50 for peptide LJP 688” value ([5]; ACA serum 6644 RS) was 760 µg/mL. The “Percent Inhibition of AffACA by Peptide Monomers, 6644” value [5, 14] was 100%, the “IC50 for peptide LJP 688” value ([6]; ACA serum 7004 RFL) was 670 µg/mL and the “Percent Inhibition of AffACA by Peptide Monomers, 7004” value [6, 14] was 100%. For the same compound, the “IC50 for peptide LJP 688” value ([7]; ACA serum 6626 RS) was 1090 µg/mL, the “Percent Inhibition of AffACA by Peptide Monomers, 6626” value [7, 14] was 100% and the “IC50 for peptide LJP 688” value ([8]; ACA serum 6903 RS) was 800 µg/mL. The “Percent Inhibition of AffACA by Peptide Monomers, 6903” value [8, 14] was 100%, the “complete inhibition, cross-reactivity with 10 of 10 ACA antibodies” value ([9]; at 1.8 mg/mL) was > 80% and the “IC50 for peptide LJP 688, mean ± sd” value ([9]; mean over ten ACA sera) was 860 ± 160 µg/mL. The “Percent Inhibition of AffACA by Peptide Monomers, Ave.” value ([9]; peptide 1 mg/mL, average over nine antibodies) was 97%, the “Relative Activity” value [10] was 100 and the “IC50 for peptide LJP 688” value [11] was 1000 µg/mL. For the same compound, the “IC50 for peptide LJP 688” value ([12]; ACA serum 6501 RS, RFL) was 890 µg/mL and 1100 µg/mL, the “with ACA 6501 150 ug/mL” value ([12]; Optimization of Peptide 3G3, inf = no 50% inhibition) was 850 µg/mL and the “Percent Inhibition of AffACA by Peptide Monomers, 6501” value [12, 14] was 86%. For the same compound, the “result in the phage-capture ELISA” value [13] was “strongly positive”.
